Measured values from US11453683B1, “KRas G12D inhibitors” (Mirati Therapeutics, Inc., priority 2019, dated 2022).

Test system: KRas G12D-mediated phosphorylation of ERK
Experiment: Inhibition of KRas G12D-mediated phosphorylation of ERK in AGS cells
Type: cell-based
Settings: Homo sapiens; AGS cells expressing G12D, 3 hours, phospho-ERK normalized to GAPDH
Procedure, shortened: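 In-cell Western: p-ERK Thr202/Tyr204 signal over GAPDH, as % of DMSO control, with IC50 from a 4-parameter curve. AGS cells seeded 40,000/well for 12-14 h, exposed to compound 3 h at 0.5% DMSO final, then formaldehyde-fixed and methanol-permeabilized.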

SMILES | IC50 [µM]
Oc1cc(-c2ncc3c(N4C[C@H]5CC[C@@H](C4)N5)nc(N4CC5(CCOC5)C4)nc3c2F)c2ccccc2c1 [Example 76, 4-(4-((1R,5S)-3,8-diazabicyclo[3.2.1]octan-3-yl)-8-fluoro-2-(6-oxa-2-azaspiro[3.4]octan-2-yl)pyrido[4,3-d]pyrimidin-7-yl)naphthalen-2-ol] | 7.41
Fc1cccc(-c2ncc3c(N4C[C@H]5CC[C@@H](C4)N5)nc(OCC45CCCN4CCC5)nc3c2F)c1C(F)(F)F [Example 292, 4-((1R,5S)-3,8-diazabicyclo[3.2.1]octan-3-yl)-8-fluoro-7-(3-fluoro-2-(trifluoromethyl)phenyl)-2-((tetrahydro-1H-pyrrolizin-7a(5H)-yl)methoxy)pyrido[4,3-d]pyrimidine] | 1.7
O=C1OCCN1C[C@H]1CC[C@@]2(COc3nc(N4CC5CCC(C4)N5)c4cnc(-c5cccc6cccc(Cl)c56)c(F)c4n3)CCCN12 [Example 442, 3-(((3R,7aR)-7a-(((4-(3,8-diazabicyclo[3.2.1]octan-3-yl)-7-(8-chloronaphthalen-1-yl)-8-fluoropyrido[4,3-d]pyrimidin-2-yl)oxy)methyl)hexahydro-1H-pyrrolizin-3-yl)methyl)oxazolidin-2-one] | 1.16
Oc1cc(-c2ncc3c(N4C[C@H]5CC[C@@H](C4)N5)nc(N4CCCC4)nc3c2F)c2ccccc2c1 [Example 118, 4-(4-((1R,5S)-3,8-diazabicyclo[3.2.1]octan-3-yl)-8-fluoro-2-(pyrrolidin-1-yl)pyrido[4,3-d]pyrimidin-7-yl)naphthalen-2-ol 2,2,2-trifluoroacetate] | > 16.7
COC1CN2CCCC2(COc2nc(N3CC4CCC(C3)N4)c3cnc(-c4cc(O)cc5cccc(F)c45)c(F)c3n2)C1 (mixture of isomers) [Example 388, 4-(4-((1R,5S)-3,8-diazabicyclo[3.2.1]octan-3-yl)-8-fluoro-2-((2-methoxytetrahydro-1H-pyrrolizin-7a(5H)-yl)methoxy)pyrido[4,3-d]pyrimidin-7-yl)-5-fluoronaphthalen-2-ol (mixture of trans diastereomers)] | 0.0402
O=S1(=O)CCC(Oc2nc(N3C[C@H]4CC[C@@H](C3)N4)c3cnc(-c4cc(O)cc5ccccc45)c(F)c3n2)CC1 [Example 71, 4-((4-((1R,5S)-3,8-diazabicyclo[3.2.1]octan-3-yl)-8-fluoro-7-(3-hydroxynaphthalen-1-yl)pyrido[4,3-d]pyrimidin-2-yl)oxy)tetrahydro-2H-thiopyran 1,1-dioxide] | > 16.7
CN(C)C(=O)OC[C@H]1CC[C@@]2(COc3nc(N4CC5CCC(C4)N5)c4cnc(-c5cccc6cccc(Cl)c56)c(F)c4n3)CCCN12 [Example 405, (7a-(((4-(3,8-diazabicyclo[3.2.1]octan-3-yl)-7-(8-chloronaphthalen-1-yl)-8-fluoropyrido[4,3-d]pyrimidin-2-yl)oxy)methyl)hexahydro-1H-pyrrolizin-3-yl)methyl dimethylcarbamate] | 0.297
Oc1cc(-c2ncc3c(N4C[C@H]5CC[C@@H](C4)N5)nc(OCC45CCCN4C(CF)CC5)nc3c2F)c2c(Cl)cccc2c1 (stereo partly drawn) [Example 400, 4-(4-((1R,5S)-3,8-diazabicyclo[3.2.1]octan-3-yl)-8-fluoro-2-((3-(fluoromethyl)tetrahydro-1H-pyrrolizin-7a(5H)-yl)methoxy)pyrido[4,3-d]pyrimidin-7-yl)-5-chloronaphthalen-2-ol] | 0.261
Oc1cc(-c2ncc3c(N4C[C@H]5CC[C@@H](C4)N5)nc(OCCc4ccccn4)nc3c2F)c2ccccc2c1 [Example 4, 4-(4-((1R,5S)-3,8-diazabicyclo[3.2.1]octan-3-yl)-8-fluoro-2-(2-(pyridin-2-yl)ethoxy)pyrido[4,3-d]pyrimidin-7-yl)naphthalen-2-ol] | 8.53
NCC#Cc1cccc2cccc(-c3ncc4c(N5C[C@H]6CC[C@@H](C5)N6)nc(OCC56CCCN5CCC6)nc4c3F)c12 [Example 241, 3-(8-(4-((1R,5S)-3,8-diazabicyclo[3.2.1]octan-3-yl)-8-fluoro-2-((tetrahydro-1H-pyrrolizin-7a(5H)-yl)methoxy)pyrido[4,3-d]pyrimidin-7-yl)naphthalen-1-yl)prop-2-yn-1-amine] | > 16.7
CC(C)Cn1ccnc1CCOc1nc(N2C[C@H]3CC[C@@H](C2)N3)c2cnc(-c3cc(O)cc4ccccc34)c(F)c2n1 [Example 85, 4-(4-((1R,5S)-3,8-diazabicyclo[3.2.1]octan-3-yl)-8-fluoro-2-(2-(1-isobutyl-1H-imidazol-2-yl)ethoxy)pyrido[4,3-d]pyrimidin-7-yl)naphthalen-2-ol] | > 16.7
Fc1c(-c2c3ccccc3cc3[nH]ncc23)ncc2c(N3C[C@H]4CC[C@@H](C3)N4)nc(OCC34CCCN3CCC4)nc12 [Example 257, 4-(4-((1R,5S)-3,8-diazabicyclo[3.2.1]octan-3-yl)-8-fluoro-2-((hexahydro-1H-pyrrolizin-7a-yl)methoxy)pyrido[4,3-d]pyrimidin-7-yl)-1H-benzo[f]indazole] | 0.531
CC1(C)CN2CCCC2(COc2nc(N3CC4CCC(C3)N4)c3cnc(-c4cccc5cccc(Cl)c45)c(F)c3n2)C1 [Example 228, 4-((1R,5S)-3,8-diazabicyclo[3.2.1]octan-3-yl)-7-(8-chloronaphthalen-1-yl)-2-((2,2-dimethyltetrahydro-1H-pyrrolizin-7a(5H)-yl)methoxy)-8-fluoropyrido[4,3-d]pyrimidine bis-2,2,2-trifluoroacetate] | 13.7
CC(C)c1c(Cl)cc(O)cc1-c1ncc2c(N3C[C@H]4CC[C@@H](C3)N4)nc(OC[C@@]34CCCN3C[C@H](F)C4)nc2c1F [Example 291, 3-(4-((1R,5S)-3,8-diazabicyclo[3.2.1]octan-3-yl)-8-fluoro-2-(((2R,7aS)-2-fluorohexahydro-1H-pyrrolizin-7a-yl)methoxy)pyrido[4,3-d]pyrimidin-7-yl)-5-chloro-4-isopropylphenol] | 0.0465
CN(C)c1ccccc1-c1ncc2c(N3C[C@H]4CC[C@@H](C3)N4)nc(OCC34CCCN3CCC4)nc2c1F [Example 296, 2-(4-((1R,5S)-3,8-diazabicyclo[3.2.1]octan-3-yl)-8-fluoro-2-((hexahydro-1H-pyrrolizin-7a-yl)methoxy)pyrido[4,3-d]pyrimidin-7-yl)-N,N-dimethylaniline] | 8.47
Nc1ccc(CCOc2nc(N3C[C@H]4CC[C@@H](C3)N4)c3cnc(-c4cccc5cccc(Cl)c45)c(F)c3n2)cn1 [Example 141, 5-(2-((4-((1R,5S)-3,8-diazabicyclo[3.2.1]octan-3-yl)-7-(8-chloronaphthalen-1-yl)-8-fluoropyrido[4,3-d]pyrimidin-2-yl)oxy)ethyl)pyridin-2-amine] | > 16.7
CN1CCC[C@H]1COc1nc(N2CC3CCC(C)(C2)N3)c2cnc(-c3cc(O)cc4ccccc34)c(F)c2n1 (stereo partly drawn) [Example 156, 4-(8-fluoro-4-(1-methyl-3,8-diazabicyclo[3.2.1]octan-3-yl)-2-(((S)-1-methylpyrrolidin-2-yl)methoxy)pyrido[4,3-d]pyrimidin-7-yl)naphthalen-2-ol bis(2,2,2-trifluoroacetate)] | 1.79
CN1CCC[C@H]1COc1nc(N2C[C@H]3CC[C@@H](C2)N3)c2cnc(-c3cccc4cccc(Cl)c34)c(F)c2n1 [Example 132, 4-((1R,5S)-3,8-diazabicyclo[3.2.1]octan-3-yl)-7-(8-chloronaphthalen-1-yl)-8-fluoro-2-(((S)-1-methylpyrrolidin-2-yl)methoxy)pyrido[4,3-d]pyrimidine] | 2.56
CC(C)c1ccc(O)cc1-c1ncc2c(N3C[C@H]4CC[C@@H](C3)N4)nc(OCC34CCCN3CCC4)nc2c1F [Example 403, 3-(4-((1R,5S)-3,8-diazabicyclo[3.2.1]octan-3-yl)-8-fluoro-2-((tetrahydro-1H-pyrrolizin-7a(5H)-yl)methoxy)pyrido[4,3-d]pyrimidin-7-yl)-4-isopropylphenol] | 2.88
Oc1ccc(C(F)(F)F)c(-c2ncc3c(N4C[C@H]5CC[C@@H](C4)N5)nc(OCC45CCCN4CCC5)nc3c2F)c1 [Example 373, 3-(4-((1R,5S)-3,8-diazabicyclo[3.2.1]octan-3-yl)-8-fluoro-2-((tetrahydro-1H-pyrrolizin-7a(5H)-yl)methoxy)pyrido[4,3-d]pyrimidin-7-yl)-4-(trifluoromethyl)phenol] | > 16.7
CN(C)C(=O)NC[C@H]1CC[C@@]2(COc3nc(N4CC5CCC(C4)N5)c4cnc(-c5cccc6cccc(Cl)c56)c(F)c4n3)CCCN12 [Example 412, 3-((7a-(((4-(3,8-diazabicyclo[3.2.1]octan-3-yl)-7-(8-chloronaphthalen-1-yl)-8-fluoropyrido[4,3-d]pyrimidin-2-yl)oxy)methyl)hexahydro-1H-pyrrolizin-3-yl)methyl)-1,1-dimethylurea] | 4.78
C#Cc1cccc2cc(O)cc(-c3ncc4c(N5CC6CCC(C5)N6)nc(OC[C@@]56CCCN5C[C@H](OC)C6)nc4c3F)c12 (stereo in doubt) [Example 410, 4-(4-((1R,5S)-3,8-diazabicyclo[3.2.1]octan-3-yl)-8-fluoro-2-((2-methoxytetrahydro-1H-pyrrolizin-7a(5H)-yl)methoxy)pyrido[4,3-d]pyrimidin-7-yl)-5-ethynylnaphthalen-2-ol] | 0.008
Fc1c(-c2cccc3cccc(Cl)c23)ncc2c(N3C[C@H]4CC[C@@H](C3)N4)nc(OC[C@]34CCCN3[C@@H](Cn3cccn3)CC4)nc12 [Example 418, 2-((3-((1H-pyrazol-1-yl)methyl)tetrahydro-1H-pyrrolizin-7a(5H)-yl)methoxy)-4-(3,8-diazabicyclo[3.2.1]octan-3-yl)-7-(8-chloronaphthalen-1-yl)-8-fluoropyrido[4,3-d]pyrimidine bis(2,2,2-trifluoroacetate)] | 2.74
COC1(OC)CN2CCCC2(COc2nc(N3C[C@H]4CC[C@@H](C3)N4)c3cnc(-c4cccc5cccc(Cl)c45)c(F)c3n2)C1 (stereo partly drawn) [Example 404, 4-((1R,5S)-3,8-diazabicyclo[3.2.1]octan-3-yl)-7-(8-chloronaphthalen-1-yl)-2-((2,2-dimethoxytetrahydro-1H-pyrrolizin-7a(5H)-yl)methoxy)-8-fluoropyrido[4,3-d]pyrimidine] | 8.33
